The values below come from paper PMC7187334 (Clinical Pharmacology in Drug Development, 2019).

The structures appear in SMILES notation. A value given as a limit tells only on which side of the number the result lay.

The subject of one data set is healthy volunteers. The data set is described as follows: Phase 1 crossover study: safety and tolerability (adverse events). The format is in vivo, human. The protocol:
Each participant received 5 single‐dose oral study treatments (A‐E), with a minimum washout period of 7 days between each treatment period.
The safety set included all participants who received treatment in the study and for whom any postdose safety data were available. Safety was assessed throughout the study by monitoring adverse events, vital signs (systolic and diastolic blood pressure, pulse rate, and body temperature), and electrocardiographic parameters and by conducting physical examinations and laboratory assessments (hematology, blood chemistry, and urinalysis).

For data set [1] the following is noted: healthy volunteers, cited from earlier work.
In a further data set the test system is CYP1A2. Particulars: in vitro; read-out: IC50, CYP1A2 inhibition; cited from earlier work.
The test system of the next data set is CYP2D6. Particulars: in vitro; read-out: IC50, CYP2D6 inhibition; cited from earlier work.
Data set [2] concerns the target organic anion‐transporting polypeptide 1B1 (OATP1B1) (Homo sapiens, UniProt Q9Y6L6). The data set can be described thus: OATP1B1 transporter inhibition in vitro. Particulars: read-out: IC50, OATP1B1 inhibition, unpublished data.

organic anion‐transporting polypeptide 1B1 (OATP1B1), sequence (Q9Y6L6 whole entry): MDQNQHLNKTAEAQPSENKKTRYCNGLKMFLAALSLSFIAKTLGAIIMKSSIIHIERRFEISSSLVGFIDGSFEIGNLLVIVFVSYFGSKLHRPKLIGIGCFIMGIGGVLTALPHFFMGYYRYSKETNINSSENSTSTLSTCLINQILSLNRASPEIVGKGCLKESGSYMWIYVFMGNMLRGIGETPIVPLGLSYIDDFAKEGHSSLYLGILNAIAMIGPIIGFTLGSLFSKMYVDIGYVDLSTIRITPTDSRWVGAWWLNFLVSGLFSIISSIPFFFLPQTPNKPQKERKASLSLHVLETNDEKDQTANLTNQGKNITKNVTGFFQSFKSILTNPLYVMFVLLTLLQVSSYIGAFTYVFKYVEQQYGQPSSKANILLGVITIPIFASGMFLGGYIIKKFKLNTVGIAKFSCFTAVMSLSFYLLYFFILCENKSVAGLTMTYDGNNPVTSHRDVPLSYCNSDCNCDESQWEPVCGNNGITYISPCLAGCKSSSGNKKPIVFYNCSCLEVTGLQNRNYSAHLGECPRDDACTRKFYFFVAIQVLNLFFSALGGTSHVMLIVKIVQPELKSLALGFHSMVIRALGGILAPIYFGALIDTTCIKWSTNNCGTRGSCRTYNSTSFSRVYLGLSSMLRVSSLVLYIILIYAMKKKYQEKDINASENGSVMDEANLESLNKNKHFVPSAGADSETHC

Regarding `Cc1cc(-c2ccc(C(=O)[C@@H]3CCCC[C@H]3C(=O)Nc3cnn4c3C(=O)NCC4)cc2)n[nH]1` [AZD5718], the “Deaths, serious adverse events, adverse events leading to discontinuation” value with healthy volunteers (all 5 treatment periods, 12 healthy men) is “No deaths, serious adverse events, or adverse events leading to discontinuation occurred”. For the same compound, in the data set on healthy volunteers (human, in vivo), the “Participants with any AE” value is given as 6 (50.0) n (%), the “Participants with dry skin” value is on record as 1 (8.3) n (%), the Participants with headache is listed as 2 (16.7) n (%) and the “Participants with hot flush” value is recorded as 1 (8.3) n (%). Besides, in the data set with healthy volunteers (human, in vivo), the “Participants with influenza-like illness” value is 1 (8.3) n (%), the “Participants with musculoskeletal pain” value was 1 (8.3) n (%), the “Participants with nasal congestion” value is on record as 1 (8.3) n (%) and the Participants with nasopharyngitis is on record as 1 (8.3) n (%). Further, in the data set with healthy volunteers (human, in vivo), the Participants with nausea is on record as 1 (8.3) n (%), the “Participants with oropharyngeal pain” value is 1 (8.3) n (%) and the “Participants with poor-quality sleep” value is given as 1 (8.3) n (%). The “time to steady-state levels” value in data set [1] (oral suspension, multiple doses) is on record as “about 3 days”. The tolerability entry in data set [1] (single oral doses 25-1200 mg and multiple doses 60-600 mg) is reported as “well tolerated, with no identified safety concerns”. For the same compound, in the data set with CYP1A2, the IC50 is > 20 µM. In the data set with CYP2D6, the IC50 is > 20 µM. The IC50 in data set [2] amounted to 2.3 µM.
